Laboratory results published in paper PMC8173608, “Probing the Catalytic Mechanism and Inhibition of SAMHD1 Using the Differential Properties of Rp- and Sp-dNTPαS Diastereomers” (Biochemistry, 2021).

Biological target: T1, SAMHD1 (Homo sapiens, UniProt Q9Y3Z3)
T1 construct: wt-SAMHD1(1–626)
Assay: coupled enzyme assay (Ppx1/MDCC-PBP), competitive inhibition of TTP hydrolysis
Assay type: biochemical

T1 sequence (Q9Y3Z3 whole entry): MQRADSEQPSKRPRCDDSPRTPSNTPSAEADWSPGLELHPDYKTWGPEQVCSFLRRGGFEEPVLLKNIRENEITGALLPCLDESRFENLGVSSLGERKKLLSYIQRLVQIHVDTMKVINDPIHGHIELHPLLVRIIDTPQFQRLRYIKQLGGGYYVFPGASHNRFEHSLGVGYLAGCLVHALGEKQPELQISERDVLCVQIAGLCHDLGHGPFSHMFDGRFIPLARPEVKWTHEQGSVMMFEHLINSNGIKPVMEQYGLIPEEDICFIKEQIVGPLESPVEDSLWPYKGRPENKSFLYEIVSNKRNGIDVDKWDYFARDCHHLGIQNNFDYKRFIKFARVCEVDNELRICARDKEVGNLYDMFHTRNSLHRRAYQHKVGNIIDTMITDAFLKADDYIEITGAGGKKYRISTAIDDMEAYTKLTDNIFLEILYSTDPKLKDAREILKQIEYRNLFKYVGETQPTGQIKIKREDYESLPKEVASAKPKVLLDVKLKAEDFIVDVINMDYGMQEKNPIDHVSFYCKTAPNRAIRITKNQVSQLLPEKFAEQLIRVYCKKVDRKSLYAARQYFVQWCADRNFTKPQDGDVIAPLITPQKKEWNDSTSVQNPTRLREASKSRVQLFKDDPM

SMILES	Ki [µM]
Cc1cn([C@H]2C[C@H](O)[C@@H](CO[P@](O)(=S)OP(=O)(O)OP(=O)(O)O)O2)c(=O)[nH]c1=O [Sp-TTPαS]	46 ± 2
Nc1ncnc2c1ncn2[C@H]1C[C@H](O)[C@@H](CO[P@](O)(=S)OP(=O)(O)OP(=O)(O)O)O1 [Sp-dATPαS]	117 ± 7
Nc1ccn([C@H]2C[C@H](O)[C@@H](CO[P@](O)(=S)OP(=O)(O)OP(=O)(O)O)O2)c(=O)n1 [Sp-dCTPαS]	6.3 ± 0.4
Nc1nc2c(ncn2[C@H]2C[C@H](O)[C@@H](CO[P@](O)(=S)OP(=O)(O)OP(=O)(O)O)O2)c(=O)[nH]1 [Sp-dGTPαS]	0.82 ± 0.05
